Results reported in publication PMC5889558, “The inhibition of human lung fibroblast proliferation and differentiation by Gs-coupled receptors is not predicted by the magnitude of cAMP response” (Respiratory Research, 2018).
“Also recorded” adds a separate entry of the source.

What was measured:
Type in all cases: cell-based
[1] = system: human lung fibroblasts (HLF); test: Cell viability assay, caspase-3/7 as marker of apoptosis; conditions: 24 h
Procedure: Cell viability was measured using caspase-3/7 expression as a marker of apoptosis after treatment for 24 h with test compounds. HLF were seeded overnight at 6,000 cells/well in 96-well black ViewPlates, before being starved for 24 hours in culture medium devoid of FBS. Cells were incubated for 24 hours in the presence of test compounds at the top concentrations used in the proliferation assays, or in the presence of 100 nM staurosporine to induce apoptosis.
The presence of the apoptotic marker caspase-3/7 was detected by incubating cells with 8 μM CellEvent™ Caspase-3/7 Red Detection Reagent in dPBS with 5 % FBS, for 30 minutes at 37°C. […] Images were analyzed using a multi wavelength cell scoring algorithm within the MetaXpress 5.3 software, which measures cell number using stained nuclei, and percent of these cells positive for caspase-3/7 from Cy5 readouts. To account for the inter-assay variation in levels of caspase 3/7 detected in each experiment, data were normalized to the staurosporine response.
Statistical significance across treatment groups was determined by using the one-way ANOVA with Dunnett’s multiple-comparison post hoc test.

[2] = system: human lung fibroblasts (HLF); test: HLF proliferation by BrdU incorporation (DELFIA), driven by FBS or PDGF; conditions: for EC50 / Emax: Homo sapiens, Fibroblast, inhibition of BrdU incorporation, NC = not calculated due to incomplete curve; for EC50: mean ± SEM; for inhibition of FBS- and PDGF-driven proliferation (in words): either stimulus
Procedure: Proliferation of HLF was measured by incorporation of bromodeoxyuridine (BrdU). HLF were seeded overnight at 4000 cells/well in 96-well black ViewPlates, before being starved for 24 h in culture medium devoid of FBS. Proliferation was measured after incubation with a range of concentrations of FBS or PDGF, in DMEM supplemented with 0.1% w/v HSA, for 24 h.
For anti-remodelling assays using BrdU incorporation, cells were incubated for 24 h with a range of concentrations of test compounds in the presence of near maximal concentrations of FBS or PDGF in DMEM supplemented with 0.1% w/v HSA. Proliferation was assessed using the DELFIA BrdU incorporation assay kit following manufacturer protocol. Fluorescence was measured using a Packard EnVision plate reader. To account for the inter-assay variation in levels of proliferation in each experiment, data were normalized to the PDGF or FBS response.

[3] = system: human lung fibroblasts (HLF); test: cAMP accumulation in HLF (HitHunter or AlphaScreen); conditions: for EC50 / Emax: Homo sapiens, Fibroblast; for EC50: read-out: cAMP pEC50 (converted); for Emax: read-out: cAMP Emax (% max); for cAMP response (in words): acute cAMP accumulation
Procedure: HLF were grown to confluency in 96-well white ViewPlates, before incubation with a range of agonist concentrations, or vehicle, for 2 h at room temperature in HBSS with 5 mM HEPES, 0.1% w/v HSA, and 5 μM rolipram. […] Rolipram was excluded when measuring cAMP levels in response to PDE inhibitors. cAMP levels were measured using either HitHunter cAMP assay or AlphaScreen competition assay following manufacturer protocol, and were assessed on either a BMG LABTEK ClarioStar or a Packard EnVision plate reader. cAMP concentrations in each well were determined using a standard curve. To account for the inter-assay variation in levels of cAMP produced in each experiment, data were normalized to the maximal forskolin response.

[4] = system: human lung fibroblasts (HLF); test: Fibroblast to myofibroblast transdifferentiation (FMT), αSMA immunofluorescence, TGFβ-driven; conditions: 48 h, TGFβ 0.3 ng/mL
Procedure: To assess the differentiation of fibroblasts to the myofibroblast phenotype, immunofluorescence was used to monitor increases in α smooth muscle actin (αSMA). HLF were seeded overnight at 1000 cells/well in 384-well black clear bottom plates, before being starved for 24 h growth medium devoid of FBS.
For anti-remodelling assays using FMT, cells were incubated for 48 h with a range of concentrations of test compounds and incubated for 48 h, at 37°C, 5% CO2 in the presence of a near maximal concentration of TGFβ (0.3 ng/mL), to promote differentiation in DMEM supplemented with 0.1% w/v HSA. Following stimulation, cells were fixed in 4% paraformaldehyde, washed 3× in PBS (with Ca^2+/Mg^2+), and incubated with permeabilising blocking buffer (dPBS (with Ca^2+/Mg^2+), 10% FBS (v/v), 0.1% Triton X-100 (v/v)) for 1 h at 37°C. Wells were then washed 3× in wash buffer (Tris Buffered Saline (TBS), 0.05% (v/v) Tween-20) and incubated with mouse anti-α SMA (1:1000 dilution in permeabilising blocking buffer) for 1 h at room temperature, with gentle shaking. Following 3× wash in wash buffer, wells were incubated with blocking buffer containing Hoechst to stain for nuclear DNA (2 μM), and FITC-conjugated Affini-pure goat […] IgG (1:1000 dilution in blocking buffer) for 30 min at 37°C. Fluorescence was then quantified on a widefield ImageXpress Micro microscope, with a Plan Fluor 20X objective, DAPI filter cube (excitation 400–418 nm, emission 435–470 nm), 50 ms exposure time for nuclei, and FITC filter cube (excitation 467–498 nm, emission 513–556 nm), 200 ms exposure time for αSMA.
To quantify increases in αSMA fluorescence, a standard Multi-Wavelength Cell Scoring algorithm was used in MetaXpress 5.3 software (Molecular Devices, California, USA). To account for the inter-assay variation in levels of αSMA expression produced in each experiment, data were normalized to the response to TGFβ.

[5] = 24 h, EC80 concentration of PDGF, read-out: Proliferation vs PDGF pEC50 (converted)
[6] = 24 h, EC80 concentration of serum, read-out: Proliferation vs serum pEC50 (converted)
[7] = 24 h, EC80 PDGF, percentage of maximal proliferation observed with PDGF, read-out: Proliferation vs PDGF Emax (% max)
[8] = 24 h, EC80 serum, percentage of maximal proliferation observed with serum, read-out: Proliferation vs serum Emax (% max)
[9] = HLF, 2 h, room temperature, 5 μM rolipram (excluded for PDE inhibitors), mean ± SEM, at least 3 experiments, NC = not calculated due to incomplete curve
[10] = HLF, 2 h, percentage of the maximal forskolin response, mean ± SEM, NC = not calculated due to incomplete curve
[11] = HLF, 1:10 dilution of top conc 10 μM
[12] = HLF, top conc 10 μM, mean ± SEM, n=3

With `COc1ccc(CC(C)NCC(O)c2ccc(O)c(NC=O)c2)cc1` (stereo not drawn) [Formoterol] the “% cells positive for caspase-3/7, 1:10 dilution” value (shortened to “% cells positive … 1:10 dilution”) ([1]; HLF, 1:10 dilution of top conc 100 nM) was 0.88 ± 0.48%, the “% cells positive for caspase-3/7, Top conc” value (“% cells positive … Top conc” below) ([1]; HLF, top conc 100 nM) was 0.67 ± 0.22% and the EC50 [2, 5] was 0.832 nM. It also gave an EC50 [2, 6] of 0.263 nM and an EC50 ([3]; 2 h) of 0.417 nM.
For `CCCCC(C)(O)C/C=C/[C@H]1[C@H](O)CC(=O)[C@@H]1CCCCCCC(=O)OC` (mixture of isomers) [Misoprostol], the “% cells positive … 1:10 dilution” value ([1]; human, 1 μM) was 0.55 ± 0.04%, the “% cells positive … Top conc” value ([1]; human, 10 μM) was 0.54 ± 0.18% and the Emax [2, 7] was 94.1 ± 1.59%. For the same compound, the EC50 [2, 5] was 741 nM, the EC50 [2, 6] was 182 nM and the Emax [2, 8] was 34.7 ± 0.71%. The EC50 [3, 9] was 107 nM and the Emax [3, 10] was 52.4 ± 6.23%.
In the case of `O=C(NOC[C@H](O)CO)c1ccc(F)c(F)c1Nc1ccc(I)cc1F` [PD0325901], the “inhibition of PDGF-mediated proliferation (in words)” value ([2]; 3 ng/mL PDGF) is reported as “blocked PDGF-mediated proliferation of HLF”.
For `CCc1cc2c(cc1CC)CC(NC[C@H](O)c1ccc(O)c3[nH]c(=O)ccc13)C2` [Indacaterol], the “% cells positive … 1:10 dilution” value ([1]; HLF, 1:10 dilution of top conc 1 μM) was 0.62 ± 0.15%, the “% cells positive … Top conc” value ([1]; HLF, top conc 1 μM) was 0.62 ± 0.01% and the Emax [2, 7] was 90.3 ± 5.25%. It also gave an EC50 [2, 5] of 1.45 nM, an EC50 [2, 6] of 11 nM and an Emax [2, 8] of 47.9 ± 1.58%. The “maximal cAMP response” value ([3]; HLF, % of the forskolin response) was 80%, the EC50 [3, 9] was 2.63 nM and the Emax [3, 10] was 83.3 ± 4.47%.
With `CC(C)(C)NCC(O)c1ccc(O)c(CO)c1` (stereo not drawn) [Salbutamol] the “% cells positive … 1:10 dilution” value ([1]; human, 1 μM) was 0.53 ± 0.12%, the “% cells positive … Top conc” value ([1]; human, 10 μM) was 0.46 ± 0.09% and the Emax [2, 7] was 69.2 ± 5.53%. It also gave an EC50 [2, 5] of 10.5 nM, an EC50 [2, 6] of 91.2 nM and an Emax [2, 8] of 32.4 ± 5.84%. For the same compound, the EC50 [3, 9] was 43.7 nM and the Emax [3, 10] was 68.9 ± 1.4%.
`O=C(O)COc1cccc(-c2ocnc2-c2nc(-c3ccccc3)c(-c3ccccc3)o2)c1` [BMY-45778] was tested, and the “cAMP pEC50” value [3, 9] was 7.25 ± 0.09 and the “cAMP Emax (% max)” value [3, 10] was 50.0 ± 4.59 % max.
For `CN[C@@H]1C[C@H]2O[C@@](C)([C@@H]1OC)n1c3ccccc3c3c4c(c5c6ccccc6n2c5c31)C(=O)NC4` [Staurosporine], the “% cells positive … Top conc” value ([1]; HLF, top conc 100 nM) was 54.8 ± 13.6% and the “caspase-3/7 expression / apoptosis (in words)” value ([1]; HLF, one-way ANOVA with Dunnett's test) was “statistically significant cell apoptosis”.
For `COc1ccc(C2CNC(=O)C2)cc1OC1CCCC1` (stereo not drawn) [Rolipram], the “inhibition of FBS- and PDGF-driven proliferation (in words)” value ([2]; BrdU, 24 h) was “incapable of inhibiting the proliferation mediated by either stimulus”, the “inhibition of TGFβ-driven FMT (in words)” value [4] was “full concentration-response curves could not be established” and the “cAMP response (in words)” value ([3]; HLF) was “no detectable cAMP accumulation”.
Work on `CC#CCC(C)[C@H](O)/C=C/[C@@H]1[C@H]2c3cccc(CCCC(=O)O)c3O[C@H]2C[C@H]1O` (mixture of isomers) [Beraprost] yielded an EC50 [3, 9] of 105 nM and an Emax [3, 10] of 107 ± 8.99%.
“Alpha melanocortin stimulating hormone (Ac-SYSMEHFRWGKPV-NH2; ends and bridges not checked; UniProt P01189 138-150, looked up) [α-MSH, MC1, MC3, MC4, MC5 agonist]” was tested, and the “inhibition of FBS- and PDGF-driven proliferation (in words)” value ([2]; BrdU, 24 h) was “incapable of inhibiting the proliferation mediated by either stimulus”, the “inhibition of TGFβ-driven FMT (in words)” value [4] was “full concentration-response curves could not be established” and the “cAMP response (in words)” value ([3]; HLF) was “no detectable cAMP response”.
`CC(C)Cn1c(=O)n(C)c(=O)c2[nH]cnc21` [IBMX] was tested, and the “inhibition of FBS- and PDGF-driven proliferation (in words)” value ([2]; BrdU, 24 h) was “some inhibition of both proliferation and FMT at higher concentrations”, the “inhibition of TGFβ-driven FMT (in words)” value [4] was “full concentration-response curves could not be established; also recorded: some inhibition of both proliferation and FMT at higher concentrations” and the “cAMP response (in words)” value ([3]; HLF) was “no detectable cAMP accumulation; also recorded: did not observe any acute cAMP accumulation”.
In the case of `CCNC(=O)[C@H]1O[C@@H](n2cnc3c(N)nc(NCCc4ccc(CCC(=O)O)cc4)nc32)[C@H](O)[C@@H]1O` [CGS-21680], the “cAMP response (in words)” value ([3]; HLF) is reported as “no detectable cAMP response”.
With `CC#CCC(C)[C@H](O)/C=C/[C@@H]1[C@H]2C/C(=C/CCCC(=O)O)C[C@H]2C[C@H]1O` (stereo partly drawn) [Iloprost] the “% cells positive … 1:10 dilution” value ([1]; human, 0.3 μM) was 1.15 ± 0.29%, the “% cells positive … Top conc” value ([1]; human, 3 μM) was 0.88 ± 0.08% and the EC50 [3, 9] was 77.6 nM. The Emax [3, 10] was 99.5 ± 7.22%.
In the case of `CCCCC[C@H](O)/C=C/[C@H]1[C@H](O)CC(=O)[C@@H]1C/C=C\CCCC(=O)O` [PGE2, prostaglandin E2], the “% cells positive … 1:10 dilution” value [1, 11] is reported as 0.53 ± 0.04%, the “% cells positive … Top conc” value [1, 12] is reported as 0.68 ± 0.29% and the Emax [2, 7] is reported as 71 ± 3.86%. It also gave an EC50 [2, 5] of 2.51 nM, an EC50 [2, 6] of 91.2 nM and an Emax [2, 8] of 43.1 ± 6.14%. For the same compound, the EC50 [3, 9] was 45.7 nM and the Emax [3, 10] was 85.5 ± 8.64%.
With `CCCC1([C@H](O)C/C=C/[C@H]2[C@H](O)CC(=O)[C@@H]2CCCCCCC(=O)OC)CCC1` [Butaprost] the “% cells positive … 1:10 dilution” value [1, 11] was 0.90 ± 0.39%, the “% cells positive … Top conc” value [1, 12] was 0.80 ± 0.29% and the “maximal level of inhibition of serum-driven proliferation” value ([2]; BrdU, 24 h, near maximal FBS) was 29%. It also gave an EC50 [2, 6] of 64.6 nM, an Emax [2, 8] of 29.1 ± 7.29% and an EC50 [3, 9] of 1550 nM. For the same compound, the Emax [3, 10] was 8.76 ± 3.25%.
